Measured values as given in patent US12662451B2, “Chemical compounds and uses thereof” (GLAXOSMITHKLINE INTELLECTUAL PROPERTY (NO.4) LIMITED, priority 2023, dated 2026).
Structures can show the parent of a compound that is named as a salt. Where two headings read alike, the source gives them in different places.

Key:
[1] = Cell culture media unbound percentage and stability by rapid equilibrium dialysis (Example C); type: in vitro ADME; details: bovine, cell assay medium (RPMI-1640 with 10% fetal bovine serum), pH 7.4, rapid equilibrium dialysis, 4 hours at 37° C., read-out: Cell Culture Media Binding (% unbound)
Description: It was observed that the compounds of the present disclosure are bound to cell assay media to various degrees, which would affect the cellular potency analysis in Example B. To measure free drug potency, concentrations used in the cell assays were corrected with the measured free fraction determined in the cell assay media. Compounds were incubated in a rapid equilibrium dialysis (RED) at a nominal concentration of 1 μM, using a dialysis buffer of phosphate-buffered saline (PBS, 100 mM sodium phosphate+150 mM sodium chloride, pH 7.4). The test compound was spiked into the medium. Aliquots were added to the donor wells of a RED plate in triplicate, and blank PBS was added to each receiver well, at volumes recommended by the manufacturer. Plates were incubated with shaking at 200 rpm for 4 hours at 37° C. The resultant samples were analysed by LC-MS/MS using a specific and sensitive method. Results were reported as analyte:internal standard peak area ratios (PARs), and the percent unbound was calculated with the following equation:
[formula] where D=the matrix dilution factor (D=1 for media); Apparent Fu=Crec/Cdon; Crec=PAR in receiver samples; Cdon=PAR in donor samples. Percent stability was calculated by:
[formula] where Cfinal=PAR in the T=240 minute sample; Cinitial=PAR in the T=0 minute sample. Cell culture media unbound percentage and calculated free drug potency of selected compounds along with their measured potency from Example B are shown in Table 3.

[2] = tested on: SW48 human colorectal cancer cells (MSI-H cancer cells); assay: SW48 cell viability, CellTiter-Glo, 120 hours (Example B); details: for CC50: Homo sapiens
[3] = biological target: T1, recombinant full-length WRN protein (1-1432) (Homo sapiens, UniProt Q14191); assay: WRN unwinding activity, fluorogenic 384-well assay (Example A); type: biochemical; details: WRN unwinding activity, 4 hr; Table 2; read-out: 4 hr UNW pIC50 (converted)
T1 construct: recombinant full-length WRN protein (1-1432)
T1 sequence (Q14191 whole entry): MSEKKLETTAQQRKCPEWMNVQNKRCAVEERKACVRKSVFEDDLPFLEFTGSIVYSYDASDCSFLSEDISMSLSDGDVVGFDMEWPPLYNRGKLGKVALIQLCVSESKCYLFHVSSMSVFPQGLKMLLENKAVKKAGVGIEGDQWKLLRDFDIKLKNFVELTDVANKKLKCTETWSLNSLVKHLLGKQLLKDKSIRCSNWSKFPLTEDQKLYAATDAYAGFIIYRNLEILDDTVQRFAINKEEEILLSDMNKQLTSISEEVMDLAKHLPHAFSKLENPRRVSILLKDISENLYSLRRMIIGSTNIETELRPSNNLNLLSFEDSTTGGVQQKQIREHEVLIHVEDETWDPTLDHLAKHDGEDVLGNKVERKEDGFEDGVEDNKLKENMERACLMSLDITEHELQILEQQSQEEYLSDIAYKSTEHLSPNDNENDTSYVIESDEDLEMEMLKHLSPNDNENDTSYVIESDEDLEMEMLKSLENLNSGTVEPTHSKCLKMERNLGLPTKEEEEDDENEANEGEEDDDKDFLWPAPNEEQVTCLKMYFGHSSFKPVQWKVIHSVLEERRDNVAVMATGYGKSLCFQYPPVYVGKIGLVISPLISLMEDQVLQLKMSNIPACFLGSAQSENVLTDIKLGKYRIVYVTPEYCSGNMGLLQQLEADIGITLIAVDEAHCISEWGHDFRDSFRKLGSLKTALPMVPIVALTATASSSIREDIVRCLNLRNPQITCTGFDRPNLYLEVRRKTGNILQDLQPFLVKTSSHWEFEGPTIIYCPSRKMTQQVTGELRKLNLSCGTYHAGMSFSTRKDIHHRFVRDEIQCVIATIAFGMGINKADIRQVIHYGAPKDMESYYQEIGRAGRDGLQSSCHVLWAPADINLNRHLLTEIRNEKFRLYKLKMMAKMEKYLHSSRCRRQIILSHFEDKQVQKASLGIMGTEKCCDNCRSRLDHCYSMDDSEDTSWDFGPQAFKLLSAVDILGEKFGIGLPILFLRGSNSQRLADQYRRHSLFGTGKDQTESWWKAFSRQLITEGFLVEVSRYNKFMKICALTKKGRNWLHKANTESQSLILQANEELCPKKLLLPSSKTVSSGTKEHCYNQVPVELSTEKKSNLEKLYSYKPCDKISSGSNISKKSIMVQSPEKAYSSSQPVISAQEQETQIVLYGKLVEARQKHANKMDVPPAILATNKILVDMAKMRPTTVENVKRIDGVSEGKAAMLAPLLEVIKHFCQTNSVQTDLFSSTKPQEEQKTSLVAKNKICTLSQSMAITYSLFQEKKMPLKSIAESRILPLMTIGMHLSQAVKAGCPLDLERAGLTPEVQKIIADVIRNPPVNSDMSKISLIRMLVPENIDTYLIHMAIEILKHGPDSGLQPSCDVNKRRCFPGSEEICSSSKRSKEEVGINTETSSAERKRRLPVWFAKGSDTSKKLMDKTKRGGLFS
Method in brief: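 200 pM enzyme (2× stock) preincubated with compound 4 h at ambient temperature, then 200 μM ATP and 12 nM quenched TAMRA-labelled dsDNA (2× stocks) added for 60 min; EDTA-quenched. Buffer 25 mM Tris pH 8.0, 5 mM NaCl, 2 mM MgCl2. Fluorescence at 525/598 nm; pIC50 from four-parameter fit.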

[4] = tested on: SW48 human colorectal cancer cells; assay: Calculated free drug potency in SW48 cell assay, corrected with media free fraction (Example C); type: cell-based; details: for CC50: Homo sapiens, SW48, SW48 pCC50 corrected with measured free fraction in cell assay media
Method in brief: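 Compound spiked at nominal 1 μM into cell assay medium and dialysed against PBS (100 mM sodium phosphate, 150 mM NaCl, pH 7.4) by rapid equilibrium dialysis, 4 h, 37 °C, shaking. Percent unbound from LC-MS/MS peak area ratios (240 min vs 0 min); cell assay concentrations corrected by this free fraction.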

[5] = SW48, 120 h, read-out: SW48 pCC50, SW48 cell viability, 120 hours incubation (converted), Table 2
[6] = SW48, read-out: SW48 pCC50, measured potency from Example B, as repeated in Table 3 (converted)
[7] = SW48 cell viability, 120 hours incubation, Table 2

| fraction unbound at 4 h, 1 µM [1] | IC50 [3] [nM] | SMILES | CC50 [2, 5] [nM] | CC50 [4] [nM] | CC50 [2, 6] [nM] | SW48 pCC50 [2, 7] | SW48 pCC50 ([2]; measured potency from Example B, as repeated in Table 3) | Free Drug SW48 pCC50 ([4]; SW48 pCC50 corrected with measured free fraction in cell assay media) |
| --- | --- | --- | --- | --- | --- | --- | --- | --- |
| 0.234 | 25.1 | CN[C@H]1C[C@H](c2ccc(N(C)S(=O)(=O)c3ccc4c(c3)nc(C)n4C)cc2)[C@@H](C(=O)O)[C@H](C(=O)Nc2ccc(C(F)(F)F)cc2F)C1 (single isomer, unassigned) [Example 254] | 10000 | 2340 |  |  |  |  |
| 0.439 | 158 | CN[C@H]1C[C@H](C(=O)Nc2ccc(C(F)(F)F)cc2F)[C@@H](C(=O)O)[C@H](c2ccc(N(C)S(=O)(=O)c3ccc4c(c3)nc(C)n4C)cc2)C1 (single isomer, unassigned) [Example 255] | 7940 | 3470 | 7940 |  |  |  |
| 0.284 | 1.26 | CN[C@@H]1C[C@H](c2ccc(N(C)S(=O)(=O)c3ccc4c(c3)nc(C)n4C)cc2)[C@@H](C(=O)O)[C@H](C(=O)Nc2ccc(C(F)(F)F)cc2F)C1 (single isomer, unassigned) [Example 256] | 6310 | 1780 | 6310 |  |  |  |
| 0.156 | 1.58 | Cc1nc2cc(S(=O)(=O)N(C)c3ccc([C@H]4C[C@@H](C#N)C[C@@H](C(=O)Nc5ccc(C(F)(F)F)cc5F)[C@@H]4C(=O)O)cc3)ccc2n1C (single isomer, unassigned) [Example 287] | 398 | 61.7 | 398 |  |  |  |
| 0.151 | 501 | CC(=O)N[C@@H]1C[C@@H](COc2ccc(C(F)(F)F)cc2)[C@H](C(=O)O)[C@@H](c2ccc(N(C)S(=O)(=O)c3ccc4c(c3)nc(C)n4C)cc2)C1 (single isomer, unassigned) [Example 298] | 10000 | 1510 |  |  |  |  |
| 0.224 | 1.58 | Cc1nc2cc(S(=O)(=O)N(C)c3ccc([C@H]4C[C@@H](N5CCOCC5)C[C@@H](C(=O)Nc5ccc(C(F)(F)F)cc5F)[C@@H]4C(=O)O)cc3)ccc2n1C (single isomer, unassigned) [Example 337] |  |  |  | 6.8 | 6.8 | 7.45 |
| 0.0942 | 5.01 | Cc1nc2cc(S(=O)(=O)N(C)c3ccc([C@H]4C[C@@H](OCC5CC6CCC(C5)O6)C[C@@H](C(=O)Nc5ccc(C(F)(F)F)cc5F)[C@@H]4C(=O)O)cc3)ccc2n1C (single isomer, unassigned) [Example 360] | 63.1 | 5.89 | 63.1 |  |  |  |
| 0.113 | 631 | Cc1nc2cc(S(=O)(=O)N(C)c3ccc([C@@H]4CC(F)(F)C[C@H](C(=O)Nc5ccc(C(F)(F)F)cc5F)[C@H]4C(=O)O)cc3)ccc2n1C (single isomer, unassigned) [Example 364] | 10000 | 1120 |  |  |  |  |
| 0.128 | 5.01 | Cc1nc2cc(S(=O)(=O)N(C)c3ccc([C@H]4CCC[C@@H](C(=O)Nc5ccc(C(F)(F)F)cc5F)[C@@H]4C(=O)O)cc3F)ccc2n1C (single isomer, unassigned) [Example 368] | 794 | 102 | 794 |  |  |  |
| 0.113 | 3.98 | Cc1nc2cc(S(=O)(=O)N(C)c3ccc([C@H]4CCC[C@@H](C(=O)Nc5ccc(C(F)(F)F)cc5F)[C@@H]4C(=O)O)c(F)c3)ccc2n1C (single isomer, unassigned) [Example 374] |  | 44.7 | 398 | 6.4 |  |  |
| 0.235 | 5.01 | Cc1nc2cc(S(=O)(=O)N(C)c3ccc([C@@H]4C[C@@H]5COC[C@@H]5[C@@H](C(=O)Nc5ccc(C(F)(F)F)cc5F)[C@@H]4C(=O)O)cc3)ccc2n1C (single isomer, unassigned) [Example 389] | 2510 | 589 | 2510 |  |  |  |
| 0.0233 | 3.16 | CCCO[C@@H]1C[C@H](c2ccc(N(C)S(=O)(=O)c3ccc4c(c3)nc(C)n4C)cc2)[C@@H](C(=O)O)[C@H](C(=O)Nc2ccc(C(F)(F)F)cc2F)C1 (stereo in doubt) [Example 151, rel-(1R,2R,4R,6S)-2-((2-fluoro-4-(trifluoromethyl)phenyl)carbamoyl)-4-propoxy-6-(4-((N,1,2-trimethyl-1H-benzo[d]imidazole)-5-sulfonamido)phenyl)cyclohexane-1-carboxylic acid] | 501 | 11.7 | 501 |  |  |  |
| 0.0127 | 3.98 | Cc1nc2cc(S(=O)(=O)N(C)c3ccc([C@H]4C[C@@H](OCC5CCC5)C[C@@H](C(=O)Nc5ccc(C(F)(F)F)cc5F)[C@@H]4C(=O)O)cc3)ccc2n1C (stereo in doubt) [Example 154, rel-(1R,2R,4R,6S)-4-(cyclobutylmethoxy)-2-((2-fluoro-4-(trifluoromethyl)phenyl)carbamoyl)-6-(4-((N,1,2-trimethyl-1H-benzo[d]imidazole)-5-sulfonamido)phenyl)cyclohexane-1-carboxylic acid] | 398 | 5.01 | 398 |  |  |  |
| 0.0289 | 1.58 | Cc1nc2cc(S(=O)(=O)N(C)c3ccc([C@@H]4CCC[C@H](COc5ccc(C(F)(F)F)cc5)[C@H]4C(=O)O)cc3)cc([C@H]3CCCNC3)c2n1C (stereo in doubt) [Example 208, rel-(1R,2R,6S)-2-((4-(trifluoromethyl)phenoxy)methyl)-6-(4-((N,1,2-trimethyl-7-((R)-piperidin-3-yl)-1H-benzo[d]imidazole)-5-sulfonamido)phenyl)cyclohexane-1-carboxylic acid, hydrochloride] | 1260 | 36.3 | 1260 |  |  |  |
| 0.274 | 1 | Cc1nc2cc(S(=O)(=O)N(C)c3ccc([C@H]4C[C@@H](N(C)C)C[C@@H](C(=O)Nc5ccc(C(F)(F)F)cc5F)[C@@H]4C(=O)O)cc3)ccc2n1C (stereo in doubt) [Example 251, rel-(1R,2R,4R,6S)-4-(dimethylamino)-2-((2-fluoro-4-(trifluoromethyl)phenyl)carbamoyl)-6-(4-((N,1,2-trimethyl-1H-benzo[d]imidazole)-5-sulfonamido)phenyl)cyclohexane-1-carboxylic acid] | 501 | 138 | 501 |  |  |  |
| 0.068 | 3.16 | Cc1nc2cc(S(=O)(=O)N(C)c3ccc([C@H]4C[C@@H](OC(F)F)C[C@@H](C(=O)Nc5ccc(C(F)(F)F)cc5F)[C@@H]4C(=O)O)cc3)ccc2n1C (stereo in doubt) [Example 284, rel-(1R,2R,4R,6S)-4-(difluoromethoxy)-2-((2-fluoro-4-(trifluoromethyl)phenyl)carbamoyl)-6-(4-((N,1,2-trimethyl-1H-benzo[d]imidazole)-5-sulfonamido)phenyl)cyclohexane-1-carboxylic acid] | 200 | 13.5 | 200 |  |  |  |
| 0.223 | 1.58 | CC(=O)N(C)[C@@H]1C[C@H](c2ccc(N(C)S(=O)(=O)c3ccc4c(c3)nc(C)n4C)cc2)[C@@H](C(=O)O)[C@H](C(=O)Nc2ccc(C(F)(F)F)cc2F)C1 (stereo in doubt) [Example 292, rel-(1R,2R,4R,6S)-2-((2-fluoro-4-(trifluoromethyl)phenyl)carbamoyl)-4-(N-methylacetamido)-6-(4-((N,1,2-trimethyl-1H-benzo[d]imidazole)-5-sulfonamido)phenyl)cyclohexane-1-carboxylic acid] | 794 | 178 | 794 |  |  |  |
